According to article PMC6237183 (Nature structural & molecular biology, 2018):
pEC50: −log10 of the molar value. Where “and” joins values, the source holds several entries; their conditions need not be identical. Equal values may be shown once. Entries after “also recorded” stand apart in the source; their conditions may differ. Read-outs that look alike come from different tables or passages of the source.

Columns and labels:
5-HT2BR wild-type = 5-HT2BR wild-type (Homo sapiens, UniProt P41595); test: Gq-mediated calcium flux FLIPR assay; details: for Gq calcium flux Emax: normalized to percent 5-HT stimulation; for pEC50: agonist mode, N=3
Chain of 5-HT2BR wild-type (P41595 whole entry): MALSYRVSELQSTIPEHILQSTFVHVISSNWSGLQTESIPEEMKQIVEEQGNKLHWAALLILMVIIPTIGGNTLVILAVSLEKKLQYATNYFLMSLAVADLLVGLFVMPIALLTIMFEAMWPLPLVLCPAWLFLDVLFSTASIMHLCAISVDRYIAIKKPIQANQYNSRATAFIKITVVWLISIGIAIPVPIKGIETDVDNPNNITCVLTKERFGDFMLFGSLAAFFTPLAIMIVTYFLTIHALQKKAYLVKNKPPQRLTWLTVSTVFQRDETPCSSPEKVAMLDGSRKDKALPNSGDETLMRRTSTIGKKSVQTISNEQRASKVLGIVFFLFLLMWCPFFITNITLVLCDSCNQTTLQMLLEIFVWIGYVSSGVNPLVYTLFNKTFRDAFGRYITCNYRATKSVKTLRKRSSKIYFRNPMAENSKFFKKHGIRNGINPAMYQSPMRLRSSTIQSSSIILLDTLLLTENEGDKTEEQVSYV

5-HT2BR L362A^7.35 = 5-HT2BR L362A^7.35 (Homo sapiens, UniProt P41595, L362A); test: Gq-mediated calcium flux FLIPR assay; details: L362A^7.35 mutant, % 5-HT
Chain of 5-HT2BR L362A^7.35 (P41595 whole entry L362A): as the sequence (P41595 whole entry) above, with L362A counted along it

5-HT2BR L362F^7.35 [1] = molecular target: T1, 5-HT2BR L362F^7.35 (Homo sapiens, UniProt P41595, L362F); details: L362F^7.35 mutant
T1 sequence (P41595 whole entry L362F): as the sequence (P41595 whole entry) above, with L362F counted along it

5-HT2BR L362F^7.35 [2] = molecular target: T1, 5-HT2BR L362F^7.35; test: [3H]-LSD dissociation radioligand binding assay; details: L362F^7.35 vs WT
5-HT2BR L362F^7.35 [3] = molecular target: T1, 5-HT2BR L362F^7.35; test: BRET β-arrestin2 recruitment assay; details: L362F^7.35 mutant
5-HT2BR [4] = molecular target: T2, 5-HT2BR (Homo sapiens, UniProt P41595); test: Phosphoinositide; format: cell-based
T2 sequence (P41595 whole entry): as the sequence (P41595 whole entry) above

5-HT2BR WT = 5-HT2BR WT (Homo sapiens, UniProt P41595); test: β-Arrestin2 recruitment Tango assay
Chain of 5-HT2BR WT (P41595 whole entry): as above

5-HT2BR L362F^7.35 [5] = molecular target: T1, 5-HT2BR L362F^7.35; test: Gq-mediated calcium flux FLIPR assay; details: L362F^7.35 mutant
5-HT2BR [6] = molecular target: T2, 5-HT2BR; test: BRET β-arrestin2 recruitment assay
5-HT2BR T140A^3.37 [7] = molecular target: T3, 5-HT2BR T140A^3.37 (Homo sapiens, UniProt P41595, T140A); details: T140A^3.37 mutant, relative to wild-type
T3 sequence (P41595 whole entry T140A): as the sequence (P41595 whole entry) above, with T140A counted along it

5-HT2BR A225S^5.46 [8] = molecular target: T4, 5-HT2BR A225S^5.46 (Homo sapiens, UniProt P41595, A225S); test: [3H]-LSD competitive radioligand binding; details: A225S^5.46 mutant, relative to wild-type
T4 sequence (P41595 whole entry A225S): as the sequence (P41595 whole entry) above, with A225S counted along it

5-HT2BR T140A^3.37 [9] = molecular target: T3, 5-HT2BR T140A^3.37; test: β-Arrestin2 recruitment Tango assay; details: T140A^3.37 mutant
5-HT2BR A225G^5.46 [10] = molecular target: T5, 5-HT2BR A225G^5.46 (Homo sapiens, UniProt P41595, A225G); test: [3H]-LSD competitive radioligand binding; details: A225G^5.46 mutant, relative to wild-type
T5 sequence (P41595 whole entry A225G): as the sequence (P41595 whole entry) above, with A225G counted along it

5-HT2BR A225S^5.46 [11] = molecular target: T4, 5-HT2BR A225S^5.46; test: Gq-mediated calcium flux FLIPR assay
5-HT2BR T140S^3.37 [12] = molecular target: T6, 5-HT2BR T140S^3.37 (Homo sapiens, UniProt P41595, T140S); test: [3H]-LSD competitive radioligand binding; details: T140S^3.37 mutant, relative to wild-type
T6 sequence (P41595 whole entry T140S): as the sequence (P41595 whole entry) above, with T140S counted along it

5-HT2BR T140S^3.37 [13] = molecular target: T6, 5-HT2BR T140S^3.37; test: Gq-mediated calcium flux FLIPR assay
5-HT2BR A225G^5.46 [14] = molecular target: T5, 5-HT2BR A225G^5.46; test: Gq-mediated calcium flux FLIPR assay; details: for Emax: read-out: Gq calcium flux Emax
5-HT2BR T140A^3.37 [15] = molecular target: T3, 5-HT2BR T140A^3.37; test: [3H]-LSD competitive radioligand binding; details: T140A^3.37 mutant, relative to wild-type
5-HT2BR T140V^3.37 [16] = molecular target: T7, 5-HT2BR T140V^3.37 (Homo sapiens, UniProt P41595, T140V); test: [3H]-LSD competitive radioligand binding; details: T140V^3.37 mutant, relative to wild-type
T7 sequence (P41595 whole entry T140V): as the sequence (P41595 whole entry) above, with T140V counted along it

5-HT2BR T140V^3.37 [17] = molecular target: T7, 5-HT2BR T140V^3.37; details: T140V^3.37 mutant, relative to wild-type
[18] = read-out: Gq calcium flux EC50, 5-HT2BR wild-type

## Cc1ccc2[nH]c3c(c2c1)CCNC3Cc1ccccc1Cl (centres unmarked) [2-ClBenzyl]
5-HT2BR wild-type; 5-HT2BR wild-type
  Gq calcium flux Emax: 28%
5-HT2BR wild-type; [18]
  pEC50: 7.46

## CN1C[C@H](C(=O)N[C@]2(C)O[C@@]3(O)[C@@H]4CCCN4C(=O)[C@H](Cc4ccccc4)N3C2=O)C=C2c3cccc4[nH]cc(c34)C[C@H]21 [ERG, ergotamine]
5-HT2BR wild-type; 5-HT2BR wild-type
  Gq calcium flux agonist activity: Gq partial agonists

## CCN(CC)C(=O)[C@@H]1C=C2c3cccc4[nH]cc(c34)C[C@H]2N(C)C1 [LSD, lysergic acid diethylamide]
5-HT2BR L362A^7.35
  Gq calcium flux Emax: 67%
5-HT2BR L362F^7.35 [1]
  β-arrestin recruitment agonism: abolished
5-HT2BR wild-type; 5-HT2BR wild-type
  Gq calcium flux agonist activity: Gq partial agonists
  Gq calcium flux Emax: 82% and 79%
5-HT2BR L362F^7.35 [2]
  faster dissociation rate compared to 5-HT2BR WT: greater than 10 fold
5-HT2BR L362F^7.35 [3]
  time-dependent recruitment of β-arrestin: attenuated

## COc1ccc(CC2NCCc3c2[nH]c2ccc(C)cc32)c(Cl)c1OC (centres unmarked) [LY266097]
5-HT2BR [4]
  Gq function via PI hydrolysis: Gq partial agonism
5-HT2BR WT; 5-HT2BR WT
  β-arrestin2 recruitment activity: without detectable β-arrestin2 activity; also recorded: no β-arrestin2 recruitment activity
5-HT2BR L362F^7.35 [5]
  Gq agonist activity: abolished
5-HT2BR wild-type; 5-HT2BR wild-type
  Gq calcium flux agonist activity: modest Gq partial agonism
  Gq calcium flux Emax: 62% and 54%
5-HT2BR wild-type; [18]
  pEC50: 7.43 and 7.39
5-HT2BR [6]
  β-arrestin2 antagonism by BRET: potent β-arrestin2 antagonism
5-HT2BR [6]; real-time, across specific time points
  β-arrestin2 recruitment by BRET: At no tested time point did LY266097 display β-arrestin2 recruitment

## COc1ccc(CC2NCCc3c2[nH]c2ccccc32)c(Cl)c1OC (centres unmarked) [des-methyl LY266097 analog]
5-HT2BR wild-type; 5-HT2BR wild-type
  Gq calcium flux Emax: 93%
5-HT2BR wild-type; [18]
  pEC50: 7.70

## CC[C@@H](CO)NC(=O)[C@@H]1C=C2c3cccc4[nH]cc(c34)C[C@H]2N(C)C1 [methylergonovine]
5-HT2BR T140A^3.37 [7]
  Gq calcium flux agonism: significantly diminished
5-HT2BR A225S^5.46 [8]
  binding affinity: did not substantially affect
5-HT2BR T140A^3.37 [9]
  β-arrestin2 recruitment: failed to recruit β-arrestin2
5-HT2BR A225G^5.46 [10]
  binding affinity: did not substantially affect
5-HT2BR A225S^5.46 [11]
  pEC50: 7.82
5-HT2BR A225S^5.46 [11]; read-out: Gq calcium flux Emax
  Emax: 58%
5-HT2BR T140S^3.37 [12]
  binding affinity: spared
5-HT2BR T140S^3.37 [13]
  pEC50: 7.74
5-HT2BR T140S^3.37 [13]; read-out: Gq calcium flux Emax
  Emax: 64%
5-HT2BR A225G^5.46 [14]; Gq calcium flux EC50, A225G^5.46 mutant
  pEC50: 7.92
5-HT2BR A225G^5.46 [14]
  Emax: 55%
5-HT2BR WT
  pEC50: 8.92
5-HT2BR wild-type; 5-HT2BR wild-type
  Gq calcium flux agonist activity: Gq partial agonists
  Gq calcium flux Emax: 64%
5-HT2BR wild-type; Gq calcium flux EC50, 5-HT2BR wild-type
  pEC50: 7.51 and 7.72 and 7.64 and 7.68
5-HT2BR T140A^3.37 [15]
  binding affinity: significantly diminished
5-HT2BR T140V^3.37 [16]
  binding affinity: significantly diminished
5-HT2BR T140V^3.37 [17]
  Gq calcium flux agonism: significantly diminished

## CC[C@@H](CO)NC(=O)[C@@H]1C=C2c3cccc4c3c(cn4C)C[C@H]2N(C)C1 [methysergide]
5-HT2BR A225G^5.46 [14]
  Emax: 54%
5-HT2BR wild-type; 5-HT2BR wild-type
  Gq calcium flux agonist activity: lack of agonist activity
5-HT2BR T140V^3.37 [17]
  Gq calcium flux agonism: failed to demonstrate any measureable Gq agonist activity

## Cc1ccc2[nH]c3c(c2c1)CCNC3Cc1ccccc1 (centres unmarked) [unsubstituted Benzyl]
5-HT2BR wild-type; 5-HT2BR wild-type
  Gq calcium flux agonist activity: no detectible Gq agonist activity
